Test results as given in US20150166533A1, “NOVEL 1,3-DIHYDRO-2H-BENZIMIDAZOL-2-ONE DERIVATIVES SUBSTITUTED WITH BENZIMIDAZOLES AS RESPIRATORY SYNCYTIAL VIRUS ANTIVIRAL AGENTS” (Janssen R&D Ireland, priority 2012, published 2015).
pEC50: −log10 of the molar value. Read-outs that look alike come from different tables or passages of the source.

Key:
rgRSV224 virus = test: Antiviral activity: inhibition of rgRSV224 replication (GFP expression) in HeLa cells; format: cell-based, respiratory syncytial virus (RSV); conditions: read-out: WT activity EC50
Description: Black 96-well clear-bottom microtiter plates (Corning, Amsterdam, The Netherlands) were filled in duplicate using a customized robot system with serial 4-fold dilutions of compound in a final volume of 50 μl culture medium [RPMI medium without phenol red, 10% FBS, 0.04% gentamycin (50 mg/ml) and 0.5% DMSO]. Then, 100 μl of a HeLa cell suspension (5×10^4 cells/ml) in culture medium was added to each well followed by the addition of 50 μl rgRSV224 (MOI=0.02) virus in culture medium using a multidrop dispenser (Thermo Scientific, Erembodegem, Belgium). rgRSV224 virus is an engineered virus that includes an additional GFP gene (Hallak et al, 2000) and was in-licensed from the NIH (Bethesda, Md., USA). Medium, virus- and mock-infected controls were included in each test. Cells were incubated at 37° C. in a 5% CO2 atmosphere. Three days post-virus exposure, viral replication was quantified by measuring GFP expression in the cells by a MSM laser microscope (Tibotec, Beerse, Belgium).
(§1) The EC50 was defined as the 50% inhibitory concentration for GFP expression. In parallel, compounds were incubated for three days in a set of white 96-well microtitier plates (Corning) and the cytotoxicity of compounds in HeLa cells was determined by measuring the ATP content of the cells using the ATPlite kit (PerkinElmer, Zaventem, Belgium) according to the manufacturer's instructions. The CC50 was defined as the 50% concentration for cytotoxicity.
Compounds were tested for RSV inhibitory activity. The results are depicted in the Table below (n.d. means not determined): […]

HeLa cells = test: Cytotoxicity in HeLa cells, ATP content (ATPlite kit); format: cell-based; conditions: three days incubation, read-out: Tox CC50
Description: as §1

[1] = as above; format: cell-based; conditions: human, three days incubation, read-out: Tox CC50
Description: as §1

[2] = human respiratory syncytial virus, HeLa, 72 h

Compound	pEC50 (rgRSV224 virus; rgRSV224 (MOI=0.02) in HeLa cells, GFP expression three days post-virus exposure)	CC50 (HeLa cells)	pEC50 (rgRSV224 virus; [2])	CC50 at 3 days [1]	melting point
3-((5-chloro-1-(4-fluorobutyl)-1H-benzo[d]imidazol-2-yl)methyl)-1-(tetrahydrofuran-3-yl)-1H-imidazo[4,5-c]pyridin-2(3H)-one [Compound P10]	7.82	> 100000 nM			
CC(C)(C)OC(=O)N1CC(n2c(=O)n(Cc3nc4cc(Cl)ccc4n3CCCS(C)(=O)=O)c3ccccc32)C1 [Compound P1, tert-butyl-3-(3-((5-chloro-1-(3-(methyl-sulfonyl)propyl)-1H-bezon[d]imidazol-2-yl)methyl)-2-oxo-2,3-dihydro-1H-imidazo[d]imidazol-1-yl)azetidine-1-carboxylate]			9.17	> 100000 nM	
CC(C)(C)n1c(=O)n(Cc2nc3cc(Cl)ccc3n2CCCS(C)(=O)=O)c2cnccc21 [Compound P2, 1-tert-butyl-3-((5-chloro-1-(3-(methyl-sulfonyl)propyl)-1H-benzo[d]imidazol-2-yl)methyl)-1H-imidazo[4,5-c]pyridin-2(3H)-one]			9.41	> 100000 nM	197 °C
CC1(n2c(=O)n(Cc3nc4cc(Cl)ccc4n3CCCS(C)(=O)=O)c3cnccc32)CC1 [Compound P3]			9.60	> 100000 nM	
O=c1n(Cc2nc3cc(Cl)ccc3n2CCCCF)c2cnccc2n1-c1ccc(F)cc1 [Compound P4, 3-((5-chloro-1-(4-fluorobutyl)-1H-benzo[d]imidazol-2-yl)methyl)-1-(4-fluorophenyl)-1H-imidazo[4,5-c]pyridin-2(3H)-one]			9.52	> 100000 nM	180 °C
COc1ccc(-n2c(=O)n(Cc3nc4cc(Cl)ccc4n3CCCCF)c3cnccc32)cc1 [Compound P5, 3-((5-chloro-1-(4-fluorobutyl)-1H-benzo[d]imidazol-2-yl)methyl)-1-(4-methoxyphenyl)-1H-imidazo[4,5-c]pyridin-2(3H)-one]			> 10.00	> 100000 nM	167 °C
O=c1n(Cc2nc3cc(Cl)ccc3n2CCCCF)c2cnccc2n1-c1ccc(F)nc1 [Compound P6, 3-((5-chloro-1-(4-fluorobutyl)-1H-benzo[d]imidazol-2-yl)methyl)-1-(6-fluoropyridin-3-yl)-1H-imidazo[4,5-c]pyridin-2(3H)-one]			9.10	> 100000 nM	208 °C
COc1ccc(-n2c(=O)n(Cc3nc4cc(Cl)ccc4n3CCCS(C)(=O)=O)c3cnccc32)cc1 [Compound P7, 3-((5-chloro-1-(3-(methylsulfonyl)propyl)-1H-benzo[d]imidazol-2-yl)-methyl)-1-(4-methoxyphenyl)-1H-imidazo[4,5-c]pyridin-2(3H)-one]			10.30	> 100000 nM	250 °C
O=c1n(Cc2nc3cc(Cl)ccc3n2CCCCF)c2cnccc2n1-c1nccs1 [Compound P8, 3-((5-chloro-1-(4-fluororbutyl)-1H-benzo[d]imidazol-2-yl)methyl)-1-(thiazol-2-yl)-1H-imidazo[4,5-c]pyridin-2(3H)-one]			9.72	> 100000 nM	206 °C
O=c1n(Cc2nc3cc(Cl)ccc3n2CCCCF)c2cnccc2n1-c1ccc2ncccc2c1 [Compound P9, 3-((5-chloro-1-(4-fluororbutyl)-1H-benzo[d]imidazol-2-yl)methyl)-1-(quinolin-6-yl)-1H-imidazo[4,5-c]pyridin-2(3H)-one]			9.60	> 100000 nM	231 °C
